Reference: the supplement of paper PMC10331698
± gives the standard deviation of the averaged measurements.

How the values were obtained:
Experiment in all cases: level (log10 ratio to DMSO vehicle control); higher = higher biomarker level / cell amount than vehicle control
[1] = compound: C[C@@H]1C[C@H]2[C@@H]3CCC4=CC(=O)C=C[C@]4(C)[C@@]3(F)[C@@H](O)C[C@]2(C)[C@@]1(O)C(=O)COP(=O)(O)O [Dexamethasone sodium phosphate] (in DMSO)
Experimental: (§1)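 BioMAP Diversity Plus panel of 12 human primary cell co-culture systems (3C, 4H, LPS, SAg, BT, BF4T, BE3C, CASM3C, HDF3CGF, KF3CT, MyoF, Mphg). Compounds were added 1 h before stimulation and left for 24 h (MyoF 48 h; BT 72 h for soluble read-outs or 6 d for IgG). Biomarkers were read by ELISA, cytotoxicity by SRB, PBMC viability and proliferation by Alamar Blue. Each well value was divided by the mean of 8 DMSO control wells on the same plate and log10 transformed; duplicate blinded samples were tested at 4 concentrations.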

[2] = compound: O=C(O)C(F)(OC(F)(F)C(F)(OC(F)(F)C(F)(OC(F)(F)C(F)(F)C(F)(F)F)C(F)(F)F)C(F)(F)F)C(F)(F)F [Perfluoro-(2,5,8-trimethyl-3,6,9-trioxadodecanoic)acid] (in DMSO)
Experimental: as §1

[3] = compound: CO[Si](C)(CCC(F)(F)C(F)(F)C(F)(F)C(F)(F)C(F)(F)C(F)(F)F)OC [Dimethoxymethyl((perfluorohexyl)ethyl)silane] (in DMSO)
Experimental: as §1

[4] = compound: OCC(F)(F)C(F)(F)C(F)(F)C(F)F [1H,1H,5H-Perfluoropentanol] (in DMSO)
Experimental: as §1

[5] = compound: O=C(O)C(F)(F)C(F)(F)C(F)(F)OC(F)(F)F [Perfluoro(4-methoxybutanoic) acid] (in DMSO)
Experimental: as §1

[6] = compound: O=S(=O)(O)C(F)(F)C(F)(F)OC(F)(F)C(F)(F)F [Perfluoro(2-ethoxyethane)sulfonic acid] (in DMSO)
Experimental: as §1

Test System: BT:PBMC Cytotoxicity
- level (log10) ([1]; 1500 nM): -0.0915 ± 0.00071
- level (log10) ([1]; 4400 nM): -0.102 ± 0.028
- level (log10) ([1]; 13000 nM): -0.107 ± 0.0064
- level (log10) ([1]; 40000 nM): -0.0975 ± 0.039
- level (log10) ([2]; 1100 nM): -0.0095 ± 0.0092
- level (log10) ([2]; 3300 nM): -0.022 ± 0.011
- level (log10) ([2]; 10000 nM): -0.04 ± 0.047
- level (log10) ([3]; 6700 nM): -0.0015 ± 0.0021
- level (log10) ([3]; 20000 nM): 0.023 ± 0.0028
- level (log10) ([4]; 6700 nM): -0.0275 ± 0.013
- level (log10) ([4]; 20000 nM): -0.038 ± 0.045
- level (log10) ([4]; 60000 nM): -0.019 ± 0.042
- level (log10) ([5]; 6700 nM): 0.0095 ± 0.0078
- level (log10) ([5]; 20000 nM): -0.0025 ± 0.0064
- level (log10) ([5]; 60000 nM): 0.0225 ± 0.021
- level (log10) ([6]; 6700 nM): 0.0245 ± 0.033
- level (log10) ([6]; 20000 nM): 0.0005 ± 0.0035
- level (log10) ([6]; 60000 nM): 0.056 ± 0.013

Test System: LPS:IL-1alpha
- level (log10) ([1]; 1500 nM): -0.0215 ± 0.0035
- level (log10) ([1]; 4400 nM): -0.0475 ± 0.1
- level (log10) ([1]; 13000 nM): -0.0575 ± 0.035
- level (log10) ([1]; 40000 nM): -0.0835 ± 0.08
- level (log10) ([2]; 1100 nM): 0.0135 ± 0.00071
- level (log10) ([2]; 3300 nM): -0.0305 ± 0.023
- level (log10) ([2]; 10000 nM): -0.005 ± 0.059
- level (log10) ([3]; 6700 nM): 0.005 ± 0.03
- level (log10) ([3]; 20000 nM): 0.0235 ± 0.0092
- level (log10) ([4]; 6700 nM): -0.048 ± 0.021
- level (log10) ([4]; 20000 nM): -0.0295 ± 0.0064
- level (log10) ([4]; 60000 nM): -0.003 ± 0.0099
- level (log10) ([5]; 6700 nM): -0.023 ± 0.013
- level (log10) ([5]; 20000 nM): -0.0195 ± 0.04
- level (log10) ([5]; 60000 nM): 0.0005 ± 0.09
- level (log10) ([6]; 6700 nM): 0.026 ± 0.025
- level (log10) ([6]; 20000 nM): 0.044 ± 0.016
- level (log10) ([6]; 60000 nM): 0.011 ± 0.027

Test System: BF4T:MMP-9
- level (log10) ([1]; 1500 nM): 0.051 ± 0.041
- level (log10) ([1]; 4400 nM): 0.026 ± 0.037
- level (log10) ([1]; 13000 nM): 0.0035 ± 0.046
- level (log10) ([1]; 40000 nM): 0.0225 ± 0.063
- level (log10) ([2]; 1100 nM): 0.0045 ± 0.015
- level (log10) ([2]; 3300 nM): -0.003 ± 0.0028
- level (log10) ([2]; 10000 nM): 0.0135 ± 0.00071
- level (log10) ([3]; 6700 nM): -0.0065 ± 0.037
- level (log10) ([3]; 20000 nM): -0.001 ± 0.017
- level (log10) ([4]; 6700 nM): -0.001 ± 0.0085
- level (log10) ([4]; 20000 nM): 0.0065 ± 0.019
- level (log10) ([4]; 60000 nM): 0.0035 ± 0.013
- level (log10) ([5]; 6700 nM): 0.0095 ± 0.032
- level (log10) ([5]; 20000 nM): 0.006 ± 0.034
- level (log10) ([5]; 60000 nM): 0.027 ± 0.028
- level (log10) ([6]; 6700 nM): 0.003 ± 0.042
- level (log10) ([6]; 20000 nM): -0.0005 ± 0.019
- level (log10) ([6]; 60000 nM): 0.0295 ± 0.0021

Test System: LPS:CD106/VCAM-1
- level (log10) ([1]; 1500 nM): 0.0095 ± 0.005
- level (log10) ([1]; 4400 nM): -0.0285 ± 0.026
- level (log10) ([1]; 13000 nM): -0.0135 ± 0.0035
- level (log10) ([1]; 40000 nM): -0.0375 ± 0.023
- level (log10) ([2]; 1100 nM): -0.009 ± 0.0099
- level (log10) ([2]; 3300 nM): -0.0005 ± 0.0021
- level (log10) ([2]; 10000 nM): -0.006 ± 0.0057
- level (log10) ([3]; 6700 nM): -0.0105 ± 0.04
- level (log10) ([3]; 20000 nM): 0.0095 ± 0.0035
- level (log10) ([4]; 6700 nM): 0.007 ± 0.014
- level (log10) ([4]; 20000 nM): -0.008 ± 0.0042
- level (log10) ([4]; 60000 nM): 0.0095 ± 0.0035
- level (log10) ([5]; 6700 nM): -0.019 ± 0.02
- level (log10) ([5]; 20000 nM): -0.005 ± 0.025
- level (log10) ([5]; 60000 nM): -0.0155 ± 0.019
- level (log10) ([6]; 6700 nM): 0.013 ± 0.034
- level (log10) ([6]; 20000 nM): -0.007 ± 0.033
- level (log10) ([6]; 60000 nM): 0.0165 ± 0.049

Test System: BE3C:HLA-DR
- level (log10) ([1]; 1500 nM): 0.0175 ± 0.026
- level (log10) ([1]; 4400 nM): -0.0205 ± 0.033
- level (log10) ([1]; 13000 nM): 0.0195 ± 0.011
- level (log10) ([1]; 40000 nM): 0.035 ± 0.017
- level (log10) ([2]; 1100 nM): -0.0055 ± 0.005
- level (log10) ([2]; 3300 nM): -0.0095 ± 0.0021
- level (log10) ([2]; 10000 nM): 0.0085 ± 0.0078
- level (log10) ([3]; 6700 nM): -0.0045 ± 0.0021
- level (log10) ([3]; 20000 nM): -0.0235 ± 0.012
- level (log10) ([4]; 6700 nM): -0.017 ± 0.011
- level (log10) ([4]; 20000 nM): -0.0095 ± 0.016
- level (log10) ([4]; 60000 nM): 0.019 ± 0.023
- level (log10) ([5]; 6700 nM): -0.0005 ± 0.019
- level (log10) ([5]; 20000 nM): 0.007 ± 0.0071
- level (log10) ([5]; 60000 nM): 0.021 ± 0.021
- level (log10) ([6]; 6700 nM): -0.0085 ± 0.033
- level (log10) ([6]; 20000 nM): -0.012 ± 0.014
- level (log10) ([6]; 60000 nM): -0.0335 ± 0.0092

Test System: LPS:CD142/Tissue Factor
- level (log10) ([1]; 1500 nM): 0.0495 ± 0.026
- level (log10) ([1]; 4400 nM): 0.03 ± 0.023
- level (log10) ([1]; 13000 nM): 0.014 ± 0.03
- level (log10) ([1]; 40000 nM): 0.038 ± 0.028
- level (log10) ([2]; 1100 nM): 0.0115 ± 0.013
- level (log10) ([2]; 3300 nM): -0.011 ± 0.021
- level (log10) ([2]; 10000 nM): 0.022 ± 0.0085
- level (log10) ([3]; 6700 nM): 0.011 ± 0.048
- level (log10) ([3]; 20000 nM): 0.017 ± 0.058
- level (log10) ([4]; 6700 nM): -0.001 ± 0.021
- level (log10) ([4]; 20000 nM): 0.017 ± 0.03
- level (log10) ([4]; 60000 nM): 0.023 ± 0.021
- level (log10) ([5]; 6700 nM): -0.0085 ± 0.066
- level (log10) ([5]; 20000 nM): -0.012 ± 0.054
- level (log10) ([5]; 60000 nM): 0.016 ± 0.051
- level (log10) ([6]; 6700 nM): 0.0685 ± 0.042
- level (log10) ([6]; 20000 nM): 0.1 ± 0.057
- level (log10) ([6]; 60000 nM): 0.0485 ± 0.093

Test System: BE3C:CXCL9/MIG
- level (log10) ([1]; 1500 nM): -0.0065 ± 0.019
- level (log10) ([1]; 4400 nM): 0.003 ± 0.02
- level (log10) ([1]; 13000 nM): -0.01 ± 0.014
- level (log10) ([1]; 40000 nM): -0.0085 ± 0.00071
- level (log10) ([2]; 1100 nM): -0.001 ± 0.0071
- level (log10) ([2]; 3300 nM): 0.0025 ± 0.0078
- level (log10) ([2]; 10000 nM): 0.0045 ± 0.015
- level (log10) ([3]; 6700 nM): 0.002 ± 0.0042
- level (log10) ([3]; 20000 nM): 0.001 ± 0.0071
- level (log10) ([4]; 6700 nM): -0.0075 ± 0.012
- level (log10) ([4]; 20000 nM): 0.0135 ± 0.0092
- level (log10) ([4]; 60000 nM): 0.013 ± 0.018
- level (log10) ([5]; 6700 nM): 0.0005 ± 0.013
- level (log10) ([5]; 20000 nM): -0.006 ± 0.016
- level (log10) ([5]; 60000 nM): -0.0005 ± 0.00071
- level (log10) ([6]; 6700 nM): 0.002 ± 0.0042
- level (log10) ([6]; 20000 nM): -0.0145 ± 0.012
- level (log10) ([6]; 60000 nM): -0.0055 ± 0.0035

Test System: BT:sIL-2
- level (log10) ([1]; 1500 nM): -0.442 ± 0.033
- level (log10) ([1]; 4400 nM): -0.451 ± 0.12
- level (log10) ([1]; 13000 nM): -0.458 ± 0.039
- level (log10) ([1]; 40000 nM): -0.456 ± 0.032
- level (log10) ([2]; 1100 nM): 0 ± 0.05
- level (log10) ([2]; 3300 nM): 0.061 ± 0.069
- level (log10) ([2]; 10000 nM): 0.0465 ± 0.026
- level (log10) ([3]; 6700 nM): -0.0455 ± 0.12
- level (log10) ([3]; 20000 nM): 0.0425 ± 0.026
- level (log10) ([4]; 6700 nM): -0.0095 ± 0.066
- level (log10) ([4]; 20000 nM): -0.0245 ± 0.0078
- level (log10) ([4]; 60000 nM): 0.0145 ± 0.059
- level (log10) ([5]; 6700 nM): -0.013 ± 0.0028
- level (log10) ([5]; 20000 nM): -0.006 ± 0.052
- level (log10) ([5]; 60000 nM): 0.029 ± 0.051
- level (log10) ([6]; 6700 nM): -0.023 ± 0.0085
- level (log10) ([6]; 20000 nM): -0.0935 ± 0.04
- level (log10) ([6]; 60000 nM): -0.0595 ± 0.066
